Assay results: the supplement of paper PMC10307832

Legend:
Test in all cases: relative viability (nuclei count vs DMSO), 5 days (fraction); higher = more cells survive
CUDC-101 + Dasatinib = compound: C#Cc1cccc(Nc2ncnc3cc(OC)c(OCCCCCCC(=O)NO)cc23)c1 [CUDC-101] + Cc1nc(Nc2ncc(C(=O)Nc3c(C)cccc3Cl)s2)cc(N2CCN(CCO)CC2)n1 [Dasatinib] (partner 0.075 µM)
Outline: (§1)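 The day after seeding in 1536-well plates, lung cancer cell lines were treated by pin tool with a single drug, or with a fixed anchor-drug dose together with five library-drug doses (not always all listed) in √10 steps. After 5 days, a combined fix-and-stain solution (final 0.05% Triton X-100, 1% formaldehyde, 1 ug/ml Hoechst) was added. Nuclei counted on 4× images gave relative viability as treated counts over vehicle counts, reported as the median of duplicate plates.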

NVP-TAE684 + Crizotinib = compound: COc1cc(N2CCC(N3CCN(C)CC3)CC2)ccc1Nc1ncc(Cl)c(Nc2ccccc2S(=O)(=O)C(C)C)n1 [NVP-TAE684] + C[C@@H](Oc1cc(-c2cnn(C3CCNCC3)c2)cnc1N)c1c(Cl)ccc(F)c1Cl [Crizotinib] (partner 1 µM)
Outline: as §1

NVP-TAE684 + Phenformin = compound: COc1cc(N2CCC(N3CCN(C)CC3)CC2)ccc1Nc1ncc(Cl)c(Nc2ccccc2S(=O)(=O)C(C)C)n1 [NVP-TAE684] + N=C(N)NC(=N)NCCc1ccccc1 [Phenformin] (partner 250 µM)
Outline: as §1

Vandetanib + Linsitinib = compound: COc1cc2/c(=N/c3ccc(Br)cc3F)nc[nH]c2cc1OCC1CCN(C)CC1 [Vandetanib] + C[C@]1(O)C[C@@H](c2nc(-c3ccc4ccc(-c5ccccc5)nc4c3)c3c(N)nccn32)C1 [Linsitinib] (partner 1 µM)
Outline: as §1

Row | Cell Line | relative viability (CUDC-101 + Dasatinib; first compound 0.01 µM) | relative viability (CUDC-101 + Dasatinib; first compound 0.03162 µM) | relative viability (CUDC-101 + Dasatinib; first compound 0.1 µM) | relative viability (CUDC-101 + Dasatinib; first compound 0.3162 µM) | relative viability (CUDC-101 + Dasatinib; first compound 1 µM) | relative viability (NVP-TAE684 + Crizotinib; first compound 0.2 µM) | relative viability (NVP-TAE684 + Crizotinib; first compound 0.6325 µM) | relative viability (NVP-TAE684 + Crizotinib; first compound 2 µM) | relative viability (NVP-TAE684 + Phenformin; first compound 0.2 µM) | relative viability (NVP-TAE684 + Phenformin; first compound 0.6325 µM) | relative viability (NVP-TAE684 + Phenformin; first compound 2 µM) | relative viability (Vandetanib + Linsitinib; first compound 0.02 µM) | relative viability (Vandetanib + Linsitinib; first compound 0.06325 µM) | relative viability (Vandetanib + Linsitinib; first compound 0.2 µM) | relative viability (Vandetanib + Linsitinib; first compound 0.6325 µM) | relative viability (Vandetanib + Linsitinib; first compound 2 µM)
1 | NCI-H596 | 0.666 | 0.603 | 0.601 | 0.604 | 0.588 | 0.974 | 0.886 | 0.717 | 0.709 | 0.656 | 0.579 | 1.04 | 0.942 | 1.11 | 0.956 | 0.972
2 | NCI-H647 | 0.255 | 0.198 | 0.23 | 0.224 | 0.136 | 0.959 | 0.983 | 0.172 | 0.309 | 0.423 | 0.189 | 1.1 | 1.13 | 1.08 | 1.2 | 1.14
3 | NCI-H650 | 0.486 | 0.482 | 0.495 | 0.436 | 0.337 | 0.799 | 0.516 | 0.399 | 0.462 | 0.371 | 0.325 | 0.872 | 0.839 | 0.677 | 0.792 | 0.254
4 | NCI-H661 | 0.926 | 0.926 | 0.862 | 0.815 | 0.386 | 1.03 | 1.02 | 1.05 | 0.275 | 0.272 | 0.242 | 0.585 | 0.506 | 0.59 | 0.672 | 0.418
5 | NCI-H727 | 0.298 | 0.422 | 0.359 | 0.375 | 0.311 | 0.679 | 0.635 | 0.221 | 0.512 | 0.641 | 0.341 | 0.216 | 0.336 | 0.347 | 0.283 | 0.271
6 | NCI-H838 | 0.338 | – | 0.308 | 0.335 | 0.358 | 0.962 | 0.78 | 0.522 | 0.468 | 0.395 | 0.193 | 1.02 | 1.07 | 1.02 | 1.01 | 1.01
7 | NCI-H1355 | 0.747 | 0.672 | 0.717 | 0.741 | 0.523 | 1.09 | 0.978 | 0.568 | 0.431 | 0.391 | 0.327 | 0.732 | 0.732 | 0.551 | 0.812 | 0.755
8 | NCI-H1437 | 0.384 | 0.364 | 0.457 | 0.432 | 0.402 | 0.818 | 1.06 | 0.795 | 0.283 | 0.31 | 0.224 | 0.994 | 0.971 | 1.04 | 1.01 | 0.966
9 | NCI-H1563 | 0.439 | 0.465 | 0.448 | 0.488 | 0.429 | 0.771 | 0.79 | 0.651 | 0.662 | 0.645 | 0.53 | 1.24 | 1.06 | 1.18 | 1.19 | 1.11
10 | NCI-H1651 | 0.378 | 0.335 | 0.434 | 0.39 | 0.384 | 0.893 | 0.836 | 0.836 | 0.278 | 0.336 | 0.179 | 1 | 0.87 | 0.956 | 0.873 | 0.806
11 | NCI-H1666 | 0.903 | 0.786 | 0.814 | 0.911 | 0.795 | 1.07 | 0.841 | 0.526 | 0.564 | 0.505 | 0.501 | 0.836 | 0.817 | 0.793 | 0.641 | 0.619
12 | NCI-H1734 | 0.502 | 0.43 | 0.461 | 0.536 | 0.376 | – | 0.7 | 0.424 | 0.332 | 0.338 | 0.255 | 0.849 | 0.891 | 0.849 | 0.89 | 0.848
13 | NCI-H1755 | 0.4 | 0.376 | 0.462 | 0.519 | 0.377 | 0.991 | 0.893 | 0.681 | 0.631 | 0.537 | 0.512 | 0.985 | 0.939 | 0.922 | 0.974 | 0.936
14 | NCI-H1792 | 0.764 | 0.683 | 0.856 | 0.819 | 0.691 | 1.06 | 0.966 | 0.954 | 0.268 | 0.25 | 0.159 | 0.559 | 0.605 | 0.559 | 0.547 | 0.454
15 | NCI-H1915 | 0.301 | 0.292 | 0.293 | 0.292 | 0.24 | 0.922 | 0.921 | 0.858 | 0.332 | 0.343 | 0.369 | 1.06 | 1.09 | 1.08 | 1.1 | 1.13
16 | NCI-H1944 | 0.215 | 0.184 | 0.201 | 0.196 | 0.196 | 1.07 | 1.03 | 0.933 | 0.211 | 0.202 | 0.197 | 1.08 | 1.16 | 1.18 | 0.981 | 0.94
17 | NCI-H1975 | 0.287 | 0.373 | 0.315 | 0.413 | 0.331 | 0.978 | 1.1 | 0.227 | 0.422 | 0.367 | 0.24 | 0.902 | 0.801 | 0.897 | 0.803 | 0.902

Row | Cell Line | relative viability (CUDC-101 + Dasatinib; first compound 0.01 µM) | relative viability (CUDC-101 + Dasatinib; first compound 0.03162 µM) | relative viability (CUDC-101 + Dasatinib; first compound 0.1 µM) | relative viability (CUDC-101 + Dasatinib; first compound 0.3162 µM) | relative viability (CUDC-101 + Dasatinib; first compound 1 µM) | relative viability (NVP-TAE684 + Crizotinib; first compound 0.2 µM) | relative viability (NVP-TAE684 + Crizotinib; first compound 0.6325 µM) | relative viability (NVP-TAE684 + Crizotinib; first compound 2 µM) | relative viability (NVP-TAE684 + Phenformin; first compound 0.2 µM) | relative viability (NVP-TAE684 + Phenformin; first compound 0.6325 µM) | relative viability (NVP-TAE684 + Phenformin; first compound 2 µM) | relative viability (Vandetanib + Linsitinib; first compound 0.02 µM) | relative viability (Vandetanib + Linsitinib; first compound 0.06325 µM) | relative viability (Vandetanib + Linsitinib; first compound 0.2 µM) | relative viability (Vandetanib + Linsitinib; first compound 0.6325 µM) | relative viability (Vandetanib + Linsitinib; first compound 2 µM)
18 | NCI-H1993 | 0.594 | 0.666 | 0.686 | 0.571 | 0.541 | – | 0.709 | 0.548 | 0.508 | 0.467 | 0.519 | 0.803 | 0.639 | 0.662 | 0.762 | 0.675
19 | NCI-H2009 | 0.321 | 0.281 | 0.396 | 0.443 | 0.338 | 1.07 | 0.968 | 0.788 | 0.47 | 0.458 | 0.328 | 1.17 | 1.16 | 1.3 | 1.22 | 1.19
20 | NCI-H2023 | 0.564 | 0.635 | 0.616 | 0.748 | 0.461 | 0.549 | 0.45 | 0.144 | 0.449 | 0.415 | 0.19 | 0.698 | 0.607 | 0.676 | 0.589 | 0.485
21 | NCI-H2085 | 0.205 | 0.274 | 0.221 | 0.196 | 0.215 | 0.788 | 0.872 | 0.55 | 0.753 | 0.694 | 0.694 | 1.01 | 0.837 | 0.855 | 0.945 | 0.793
22 | NCI-H2087 | 0.795 | 0.946 | 0.841 | 0.971 | 0.718 | 0.942 | 1.14 | 0.642 | 0.501 | 0.436 | 0.33 | 0.918 | 1.03 | 0.831 | 0.922 | 0.911
23 | NCI-H2126 | 0.7 | 0.588 | 0.612 | 0.579 | 0.481 | 1.08 | 1.07 | 0.726 | 0.53 | 0.468 | 0.361 | 0.67 | 0.728 | 0.73 | 0.765 | 0.647
24 | NCI-H2228 | 0.542 | 0.543 | 0.536 | 0.52 | 0.4 | 0.476 | 0.42 | 0.139 | 0.23 | 0.158 | 0.113 | 0.589 | 0.54 | – | 0.707 | 0.585
25 | NCI-H2347 | 0.308 | 0.323 | 0.261 | 0.337 | 0.346 | 0.683 | 0.619 | 0.617 | 0.252 | 0.302 | 0.294 | 0.976 | 0.64 | 0.929 | 0.995 | 0.982
26 | NCI-H2405 | 0.217 | 0.193 | 0.228 | 0.214 | 0.191 | 0.828 | – | 0.644 | 0.395 | 0.417 | 0.312 | 0.901 | 0.552 | 0.959 | 1.01 | 0.665
27 | NCI-H3122 | 0.82 | 0.867 | 0.798 | 0.783 | 0.454 | 0.243 | 0.216 | 0.179 | 0.156 | 0.131 | 0.125 | 1.01 | 0.946 | 0.957 | 0.964 | 0.993
28 | PC-3 [JPC-3] | 0.954 | 0.932 | 0.753 | 0.483 | 0.542 | 0.993 | 1 | 0.946 | 0.477 | 0.436 | 0.454 | 0.946 | 0.882 | 0.963 | 0.876 | 0.522
29 | PC-14 | 0.292 | 0.232 | 0.0804 | 0.0597 | 0.0289 | 0.994 | 1.02 | 0.75 | 0.505 | 0.488 | 0.537 | 0.988 | 0.911 | 1.03 | 0.617 | 0.249
30 | RERF-LC-KJ | 0.793 | 0.891 | 0.765 | 0.793 | 0.421 | 0.948 | 0.781 | 0.792 | 0.394 | 0.334 | 0.257 | 0.922 | 0.859 | 0.939 | 0.835 | 0.763
31 | SK-LU-1 | 0.189 | 0.219 | 0.177 | 0.207 | 0.196 | 0.972 | 0.81 | 0.412 | 0.577 | 0.413 | 0.303 | 1.05 | 0.759 | 0.896 | 1.12 | 1.12
32 | SK-MES-1 | 0.333 | 0.394 | 0.367 | 0.417 | 0.207 | – | 0.983 | 0.804 | 0.642 | 0.686 | 0.453 | 1.09 | 0.925 | 1.06 | 0.971 | 0.989
33 | SW 1573 | 0.62 | 0.764 | 0.517 | 0.498 | 0.358 | 0.971 | 0.805 | 0.673 | 0.307 | 0.249 | 0.128 | 0.832 | 0.777 | 0.749 | 0.741 | 0.794
